Measurements from US12523646B2, “Device and method for cell-based drug screening” (The Regents of the University of California, priority 2017, dated 2026).

Assay: Numerical simulations (Comsol Multiphysics) of small-molecule concentration dynamics with porous beads and conical microwells
Settings: 225 μm diameter beads

Structure (SMILES): O=C1OC2(c3ccc(O)cc3Oc3cc(O)ccc32)c2ccccc21 [fluorescein]
- diffusion coefficient in the bead, Db, corresponding to measured t1/2: 0.125 μm^2/s
